According to patent US20250034122A1, “SUBSTITUTED N-CYANOPYRROLIDINES WITH ACTIVITY AS USP30 INHIBITORS” (MISSION THERAPEUTICS LIMITED, priority 2021, published 2025):

The compounds below were run against USP30 (Homo sapiens (Human), UniProt Q70CQ3) (assay: USP30 biochemical IC50 assay (fluorescence polarisation)). Details: geomean; USP30 4 nM, 30 min pre-incubation, TAMRA-peptide-ubiquitin FP substrate.
Sequence of USP30 (Q70CQ3 57-517): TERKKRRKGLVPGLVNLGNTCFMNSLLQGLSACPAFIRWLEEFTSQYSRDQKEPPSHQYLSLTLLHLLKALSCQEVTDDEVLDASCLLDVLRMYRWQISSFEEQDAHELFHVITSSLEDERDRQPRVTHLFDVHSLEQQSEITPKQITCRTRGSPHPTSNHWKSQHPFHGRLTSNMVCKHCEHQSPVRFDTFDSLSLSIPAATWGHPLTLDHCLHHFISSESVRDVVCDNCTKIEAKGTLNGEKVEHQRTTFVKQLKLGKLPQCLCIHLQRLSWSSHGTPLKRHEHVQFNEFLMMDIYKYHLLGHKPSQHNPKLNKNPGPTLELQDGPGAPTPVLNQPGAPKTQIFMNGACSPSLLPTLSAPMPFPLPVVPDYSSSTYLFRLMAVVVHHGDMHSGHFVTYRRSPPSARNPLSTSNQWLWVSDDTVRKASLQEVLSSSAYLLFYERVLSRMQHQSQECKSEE
Description: Dilution plates were prepared at 21 times the final concentration (2100 μM for a final concentration of 100 μM) in 50% DMSO in a 96-well polypropylene V-bottom plate (Greiner #651201). A typical 8-point dilution series would be 100, 30, 10, 3, 1, 0.3, 0.1, 0.03 μM final. Reactions were performed in duplicate in black 384 well plates (small volume, Greiner 784076) in a final reaction volume of 21 μl.
Either lpl of 50% DMSO or diluted compound was added to the plate. USP30 (Boston Biochem #E582) was diluted in reaction buffer (40 mM Tris, pH 7.5, 0.005% Tween 20, 0.5 mg/ml BSA, 5 mM beta-mercaptoethanol) to achieve a final assay concentration of 4 nM, and 10 μl of diluted USP30 was added to the compound. Enzyme and compound were incubated for 30 min at room temp. Reactions were initiated by the addition of 50 nM of TAMRA labelled peptide linked to ubiquitin via an isopeptide bond as fluorescence polarisation substrate. Reactions were read immediately after addition of substrate and following a 2-hour incubation at room temperature. Readings were performed on a Pherastar Plus (BMG Labtech). λ Excitation 540 nm; λ Emission 590 nm.

Compound	IC50 [nM]
N#CN1C[C@H](NC(=O)c2nnc(-c3cccc(OC(F)(F)F)c3)o2)C[C@H]1Cn1ccnn1 [Example 43, N-((3R,5S)-5-((1H-1,2,3-Triazol-1-yl)methyl)-1-cyanopyrrolidin-3-yl)-5-(3-(trifluoromethoxy)phenyl)-1,3,4-oxadiazole-2-carboxamide]	12
Cn1ncc2cc(-c3ccc(C(=O)N[C@@H]4C[C@@H](Cn5cccn5)N(C#N)C4)c(F)c3)ccc21 [Example 34, N-((3R,5S)-5-((1H-Pyrazol-1-yl)methyl)-1-cyanopyrrolidin-3-yl)-2-fluoro-4-(1-methyl-1H-indazol-5-yl)benzamide]	44
N#CN1C[C@H](NC(=O)c2nnc(-c3cc(OC(F)(F)F)ccc3C3CC3)o2)C[C@H]1Cn1cnnc1 [Example 49, N-((3R,5S)-5-((4H-1,2,4-Triazol-4-yl)methyl)-1-cyanopyrrolidin-3-yl)-5-(2-cyclopropyl-5-(trifluoromethoxy)phenyl)-1,3,4-oxadiazole-2-carboxamide]	6
N#CN1C[C@H](NC(=O)c2cc(-c3cccc(OC(F)(F)F)c3)ccn2)C[C@H]1Cn1ccnn1 [Example 25, N-((3R,5S)-5-((1H-1,2,3-Triazol-1-yl)methyl)-1-cyanopyrrolidin-3-yl)-4-(3-(trifluoromethoxy)phenyl)picolinamide]	9
N#Cc1ccc(C2CC2)c(-c2cnc(C(=O)N[C@@H]3C[C@@H](Cn4ccnn4)N(C#N)C3)o2)c1 [Example 9, N-((3R,5S)-5-((1H-1,2,3-Triazol-1-yl)methyl)-1-cyanopyrrolidin-3-yl)-5-(5-cyano-2-cyclopropylphenyl)oxazole-2-carboxamide]	2
N#Cc1cnc(N2CCC2)c(-c2nnc(C(=O)N[C@@H]3C[C@@H](Cn4ccnn4)N(C#N)C3)o2)c1 [Example 40, N-((3R,5S)-5-((1H-1,2,3-Triazol-1-yl)methyl)-1-cyanopyrrolidin-3-yl)-5-(2-(azetidin-1-yl)-5-cyanopyridin-3-yl)-1,3,4-oxadiazole-2-carboxamide]	12
Cc1ccn(C[C@@H]2C[C@@H](NC(=O)c3ncc(-c4cccc(OC(F)(F)F)c4)o3)CN2C#N)n1 [Example 28, N-((3R,5S)-1-Cyano-5-((3-methyl-1H-pyrazol-1-yl)methyl)pyrrolidin-3-yl)-5-(3-(trifluoromethoxy)phenyl)oxazole-2-carboxamide]	10
N#Cc1cccc(-c2cnc(C(=O)N[C@@H]3C[C@@H](Cn4cnnc4)N(C#N)C3)o2)c1 [Example 19, N-((3R,5S)-5-((4H-1,2,4-Triazol-4-yl)methyl)-1-cyanopyrrolidin-3-yl)-5-(3-cyanophenyl)oxazole-2-carboxamide]	2
N#CN1C[C@H](NC(=O)c2ncc(-c3cccc(OC(F)(F)F)c3)o2)C[C@H]1Cn1cccn1 [Example 27, N-((3R,5S)-5-((1H-Pyrazol-1-yl)methyl)-1-cyanopyrrolidin-3-yl)-5-(3-(trifluoromethoxy)phenyl)oxazole-2-carboxamide]	9
N#CN1C[C@H](NC(=O)c2nnc(-c3cc(OC(F)(F)F)ccc3C3CC3)o2)C[C@H]1Cn1cncn1 [Example 47, N-((3R,5S)-5-((1H-1,2,4-Triazol-1-yl)methyl)-1-cyanopyrrolidin-3-yl)-5-(2-cyclopropyl-5-(trifluoromethoxy)phenyl)-1,3,4-oxadiazole-2-carboxamide]	5
N#CN1C[C@H](NC(=O)c2nnc(-c3cc(OC(F)(F)F)ccc3Cl)o2)C[C@H]1Cn1ccnn1 [Example 42, N-((3R,5S)-5-((1H-1,2,3-Triazol-1-yl)methyl)-1-cyanopyrrolidin-3-yl)-5-(2-chloro-5-(trifluoromethoxy)phenyl)-1,3,4-oxadiazole-2-carboxamide]	6
CCc1cccc(-c2cnc(C(=O)N[C@@H]3C[C@@H](Cn4ccnn4)N(C#N)C3)o2)c1 [Example 11, N-((3R,5S)-5-((1H-1,2,3-Triazol-1-yl)methyl)-1-cyanopyrrolidin-3-yl)-5-(3-ethylphenyl)oxazole-2-carboxamide]	4
N#CN1C[C@H](NC(=O)c2nc(-c3cc(OC(F)(F)F)ccc3C3CC3)no2)C[C@H]1Cn1ccnn1 [Example 50, N-((3R,5S)-5-((1H-1,2,3-Triazol-1-yl)methyl)-1-cyanopyrrolidin-3-yl)-3-(2-cyclopropyl-5-(trifluoromethoxy)phenyl)-1,2,4-oxadiazole-5-carboxamide]	5
N#CN1C[C@H](NC(=O)N2CCC(c3cccc(OC(F)(F)F)c3)C2)C[C@H]1Cn1cccn1 (single isomer, unassigned) [Example 37]	120
N#CN1C[C@H](NC(=O)c2noc(-c3cc(OC(F)(F)F)ccc3C3CC3)n2)C[C@H]1Cn1ccnn1 [Example 51, N-((3R,5S)-5-((1H-1,2,3-Triazol-1-yl)methyl)-1-cyanopyrrolidin-3-yl)-5-(2-cyclopropyl-5-(trifluoromethoxy)phenyl)-1,2,4-oxadiazole-3-carboxamide]	14
N#CN1C[C@H](NC(=O)N2CCC(c3cccc(OC(F)(F)F)c3)C2)C[C@H]1Cn1cccn1 (stereo partly drawn) [Example 36, N-((3R,5S)-5-((1H-Pyrazol-1-yl)methyl)-1-cyanopyrrolidin-3-yl)-3-(3-(trifluoromethoxy)phenyl) pyrrolidine-1-carboxamide]	100
N#CN1C[C@H](NC(=O)c2nnc(-c3cc(OC(F)(F)F)ccc3C3CC3)o2)C[C@H]1Cn1nccn1 [Example 45, N-((3R,5S)-5-((2H-1,2,3-Triazol-2-yl)methyl)-1-cyanopyrrolidin-3-yl)-5-(2-cyclopropyl-5-(trifluoromethoxy)phenyl)-1,3,4-oxadiazole-2-carboxamide]	7
N#CN1C[C@H](NC(=O)c2ncc(-c3cccc(OC(F)(F)F)c3)o2)C[C@H]1Cn1ccnn1 [Example 4, N-((3R,5S)-5-((1H-1,2,3-Triazol-1-yl)methyl)-1-cyanopyrrolidin-3-yl)-5-(3-(trifluoromethoxy)phenyl)oxazole-2-carboxamide]	3
CCCc1ccc(OC(F)(F)F)cc1-c1nnc(C(=O)N[C@@H]2C[C@@H](Cn3ccnn3)N(C#N)C2)o1 [Example 48, N-((3R,5S)-5-((1H-1,2,3-Triazol-1-yl)methyl)-1-cyanopyrrolidin-3-yl)-5-(2-propyl-5-(trifluoromethoxy)phenyl)-1,3,4-oxadiazole-2-carboxamide]	5
N#CN1C[C@H](NC(=O)c2nnc(-c3cc(OC(F)(F)F)ccc3OC3CC3)o2)C[C@H]1Cn1ccnn1 [Example 15, N-((3R,5S)-5-((1H-1,2,3-Triazol-1-yl)methyl)-1-cyanopyrrolidin-3-yl)-5-(2-cyclopropoxy-5-(trifluoromethoxy)phenyl)-1,3,4-oxadiazole-2-carboxamide]	8
N#CN1C[C@H](NC(=O)c2ncc(-c3ccc(F)c(OC(F)(F)F)c3)o2)C[C@H]1Cn1ccnn1 [Example 39, N-((3R,5S)-5-((1H-1,2,3-Triazol-1-yl)methyl)-1-cyanopyrrolidin-3-yl)-5-(4-fluoro-3-(trifluoromethoxy)phenyl)oxazole-2-carboxamide]	8
N#Cc1cnc(N2CCCC2)c(-c2nnc(C(=O)N[C@@H]3C[C@@H](Cn4ccnn4)N(C#N)C3)o2)c1 [Example 41, N-((3R,5S)-5-((1H-1,2,3-Triazol-1-yl)methyl)-1-cyanopyrrolidin-3-yl)-5-(5-cyano-2-(pyrrolidin-1-yl)pyridin-3-yl)-1,3,4-oxadiazole-2-carboxamide]	9
